Experimental data from patent US11124498B2, “Compositions and methods for modulating protease activity” (THE REGENTS OF THE UNIVERSITY OF CALIFORNIA, priority 2016, dated 2021).
Residues, ends and D or L forms follow the SMILES beside them. *: point of attachment. Octanoyl = CCCCCCCC(=O)*

What was measured:
cathepsin L = target: T1, cathepsin L (Homo sapiens, UniProt P07711); experiment: in vitro protease inhibition assay, cathepsin L; format: biochemical; details: z-FR-AMC substrate, MES buffer pH 5.5
T1 construct: purchased R&D Systems
T1 sequence (P07711 114-333): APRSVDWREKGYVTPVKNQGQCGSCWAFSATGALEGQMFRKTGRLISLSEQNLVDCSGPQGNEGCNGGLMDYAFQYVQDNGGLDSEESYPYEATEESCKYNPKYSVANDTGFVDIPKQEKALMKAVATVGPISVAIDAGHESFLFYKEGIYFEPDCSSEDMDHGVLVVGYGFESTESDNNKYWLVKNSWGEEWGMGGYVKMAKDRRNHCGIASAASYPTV
Description: (§1) Protease Inhibition Assays. Detailed information about synthesis of N-Boc-protected peptidyl aldehydes and their deprotection for protease inhibition activity tests are available in the Extended Experimental Procedures. For protease inhibition assays, all fluorescence measurements were made on a Biotek H4 instrument. Buffering reagents were purchased from Sigma-Aldrich and sterile-filtered prior to use. Compounds and substrates were diluted from DMSO stocks into water/DMSO such that final DMSO plate concentrations were below 5% during the reaction. All reactions were started by the addition of substrate to the enzyme/compound solutions (see also Extended Experimental Procedures).
Deprotection of Boc-protected dipeptide aldehyde compounds. All the deprotection experiments were performed in an anaerobic chamber. Trifluoroacetic acid (TFA) was added to the purified Boc-protected dipeptidyl aldehydes. 1 μL of the reaction was added to 100 μL 80% DMSO in ddH2O and a 0.5 μL portion of the solution was examined by an Agilent 6530 qTOF LC/MS. For preparing dipeptide aldehyde solution for protease inhibition assays, the deprotection reaction was left at 30° C. for 15 mins. Then ddH2O was added to quench the reaction and give a 2.5 mM peptidyl aldehydes in 1% TFA solution. Some side products like isobutylene and their corresponding imine and pyrazinone products have poor water solubility. […]

cathepsin S = target: T2, cathepsin S (Homo sapiens, UniProt P25774); experiment: in vitro protease inhibition assay, cathepsin S; format: biochemical; details: z-FR-AMC substrate, MES buffer pH 5.5, read-out: activity against cathepsin S
T2 construct: purchased R&D Systems
T2 sequence (P25774 115-331): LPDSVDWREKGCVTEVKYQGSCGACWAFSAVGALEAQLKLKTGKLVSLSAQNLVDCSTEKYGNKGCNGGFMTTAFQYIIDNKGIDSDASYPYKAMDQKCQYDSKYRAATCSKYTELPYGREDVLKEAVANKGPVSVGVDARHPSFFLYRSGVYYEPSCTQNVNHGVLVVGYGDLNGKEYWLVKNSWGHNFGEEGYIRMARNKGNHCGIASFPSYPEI
Description: as §1
Detailed procedures for protease inhibition assays. Enzymes: cathepsin L, cathepsin B, cathepsin C and cathepsin S were purchased from R&D Systems trypsin, chymotrypsin and calpain I were purchased from Sigma-Aldrich. Calpain I was also purchased from Abcam. Human 20s proteasome was purchased from Boston Biochem.
Substrates: z-FR-AMC, Boc-IEGR-AMC, Suc-ALPF-AMC and GR-AMC were purchased from Bachem. Suc-LLVY-AMC was purchased from Anaspec. Substrates were used without further purification.
Inhibitors: Carfilzomib was a generous gift from Onyx Pharmaceuticals and was used as a positive control in the proteasome inhibition assay. […]

cathepsin L (CTSL1) = target: T3, cathepsin L (CTSL1) (Homo sapiens, UniProt P07711); experiment: competitive isoTOP-ABPP, blockade of IA-alkyne labeling, cathepsin L; format: binding; details: THP-1 membranes, 250 nM Phe-Phe-H
T3 construct: We treated membrane preparations of the human innate immune (monocytic) cell line THP-1 with the bgc35 product Phe-Phe-H; endogenous in cells; host or cells: THP-1 membrane fraction
T3 sequence (P07711 114-333): as the sequence (P07711 114-333) above
Excerpt: (§2) The proteases we assayed were chosen based on literature precedent. To determine the target of the peptide aldehydes in an unbiased way, we applied a quantitative chemical proteomic method, termed isoTOP-ABPP (Weerapana et al. 2010, Backus et al., 2016) to measure the global interactions of a representative dipeptide aldehyde, bgc35 product Phe-Phe-H, with cysteine residues in the human cell lysates. We treated membrane preparations of the human innate immune (monocytic) cell line THP-1 with the bgc35 product Phe-Phe-H or vehicle, and then these samples were treated with a cysteine reactive iodoacetamide-alkyne (IA-alkyne) probe and conjugated to an isotopically differentiated (heavy or light, respectively) TEV protease-cleavable biotin tag using copper-catalyzed azide-alkyne cycloaddition (CuAAC or click) chemistry. Vehicle- and peptide-treated samples were then combined, enriched, subjected to sequential trypsin and TEV digests and evaluated by LC-MS/MS. Site-specific blockade of IA-alkyne labeling as measured by quantitation of heavy/light MS1 chromatographic peaks designates cysteine residues that are targeted by Phe-Phe-H (heavy/light ratios, or R values>5; line, FIG. 3D). […]

cathepsin C (CTSC) = target: T4, cathepsin C (CTSC) (Homo sapiens, UniProt P53634); experiment: competitive isoTOP-ABPP, blockade of IA-alkyne labeling, cathepsin C; format: binding
T4 construct: endogenously expressed CTSC is post-translationally regulated; endogenous in cells; host or cells: THP-1 membrane fraction
T4 sequence (P53634 25-463): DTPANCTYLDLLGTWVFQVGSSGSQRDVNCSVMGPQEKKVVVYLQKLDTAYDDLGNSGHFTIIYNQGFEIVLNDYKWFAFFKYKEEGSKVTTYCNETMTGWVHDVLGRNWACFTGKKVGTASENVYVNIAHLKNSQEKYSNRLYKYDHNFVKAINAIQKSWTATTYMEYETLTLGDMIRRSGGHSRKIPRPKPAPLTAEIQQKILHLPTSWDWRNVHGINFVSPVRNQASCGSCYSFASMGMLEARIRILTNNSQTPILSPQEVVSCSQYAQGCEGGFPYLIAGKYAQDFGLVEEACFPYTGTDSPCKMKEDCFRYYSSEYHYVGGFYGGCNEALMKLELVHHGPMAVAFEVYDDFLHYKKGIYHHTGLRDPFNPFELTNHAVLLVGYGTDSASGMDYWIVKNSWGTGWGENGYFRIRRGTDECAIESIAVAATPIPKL
Excerpt: as §2

cathepsin B (CTSB) = target: T5, cathepsin B (CTSB) (Homo sapiens, UniProt P07858); experiment: competitive isoTOP-ABPP, blockade of IA-alkyne labeling, cathepsin B; format: binding; details: THP-1 membranes, 250 nM Phe-Phe-H
T5 construct: We treated membrane preparations of the human innate immune (monocytic) cell line THP-1 with the bgc35 product Phe-Phe-H; endogenous in cells; host or cells: THP-1 membrane fraction
Excerpt: as §2

cathepsin H (CTSH) = target: T6, cathepsin H (CTSH) (Homo sapiens, UniProt P09668); experiment: competitive isoTOP-ABPP, blockade of IA-alkyne labeling, cathepsin H; format: binding; details: THP-1 membranes, 250 nM Phe-Phe-H
T6 construct: We treated membrane preparations of the human innate immune (monocytic) cell line THP-1 with the bgc35 product Phe-Phe-H; endogenous in cells; host or cells: THP-1 membrane fraction
T6 sequence (P09668 98-335): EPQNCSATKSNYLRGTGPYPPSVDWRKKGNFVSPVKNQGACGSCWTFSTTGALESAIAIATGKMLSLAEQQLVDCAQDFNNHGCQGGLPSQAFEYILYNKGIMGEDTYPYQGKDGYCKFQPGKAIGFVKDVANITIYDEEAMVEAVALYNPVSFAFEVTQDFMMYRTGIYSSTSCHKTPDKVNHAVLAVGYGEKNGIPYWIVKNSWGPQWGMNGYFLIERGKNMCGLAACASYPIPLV
Excerpt: as §2

cathepsin S (CTSS) = target: T7, cathepsin S (CTSS) (Homo sapiens, UniProt P25774); experiment: competitive isoTOP-ABPP, blockade of IA-alkyne labeling, cathepsin S; format: binding
T7 construct: We treated membrane preparations of the human innate immune (monocytic) cell line THP-1 with the bgc35 product Phe-Phe-H; endogenous in cells; host or cells: THP-1 membrane fraction
T7 sequence (P25774 115-331): as the sequence (P25774 115-331) above
Excerpt: as §2

cathepsin Z (CTSZ) = target: T8, cathepsin Z (CTSZ) (Homo sapiens, UniProt Q9UBR2); experiment: competitive isoTOP-ABPP, blockade of IA-alkyne labeling, cathepsin Z; format: binding
T8 construct: We treated membrane preparations of the human innate immune (monocytic) cell line THP-1 with the bgc35 product Phe-Phe-H; endogenous in cells; host or cells: THP-1 membrane fraction
T8 sequence (Q9UBR2 62-303): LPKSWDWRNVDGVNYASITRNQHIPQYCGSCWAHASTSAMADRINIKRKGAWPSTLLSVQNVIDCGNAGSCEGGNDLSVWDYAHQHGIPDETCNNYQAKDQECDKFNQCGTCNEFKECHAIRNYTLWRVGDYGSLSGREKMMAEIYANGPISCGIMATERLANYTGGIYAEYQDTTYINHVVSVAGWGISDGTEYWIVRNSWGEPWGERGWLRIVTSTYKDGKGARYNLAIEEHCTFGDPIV
Excerpt: as §2

[1] = tested on: more than 3500 total quantified cysteines across three different human cell proteomes; experiment: competitive isoTOP-ABPP, proteome-wide selectivity over non-cathepsin cysteines; format: binding; details: more than 3500 quantified cysteines, no additional targets
Excerpt: as §2

[2] = THP-1 and other human cell proteomes (Ramos, H1975), 25 μM Phe-Phe-H
[3] = THP-1 membranes, 250 nM Phe-Phe-H

| inhibitory activity (IC50) against cathepsin L (cathepsin L) | IC50 (cathepsin S) | heavy/light MS1 ratio (R value), CTSL1 catalytic cysteine Cys138 (cathepsin L (CTSL1)) | heavy/light MS1 ratio (R value), CTSC (cathepsin C (CTSC); [2]) | heavy/light MS1 ratio (R value), CTSC catalytic cysteine Cys258 (cathepsin C (CTSC); [3]) | heavy/light MS1 ratio (R value), CTSB (cathepsin B (CTSB)) | heavy/light MS1 ratio (R value), CTSH (cathepsin H (CTSH)) | heavy/light MS1 ratio (R value), CTSS (cathepsin S (CTSS); [2]) | heavy/light MS1 ratio (R value), CTSS (cathepsin S (CTSS); [3]) | heavy/light MS1 ratio (R value), CTSZ (cathepsin Z (CTSZ); [2]) | heavy/light MS1 ratio (R value), CTSZ (cathepsin Z (CTSZ); [3]) | SMILES | heavy/light MS1 ratio (R value), additional (non-cathepsin) cysteines [1] |
| --- | --- | --- | --- | --- | --- | --- | --- | --- | --- | --- | --- | --- |
| undetectable activity | 0.013 µM |  |  |  |  |  |  |  |  |  | CCCCCCCC(=O)N[C@@H](CCSC)C(=O)N[C@H](C=O)Cc1ccccc1 [Compound 16, N-octanoyl-Met-Phe-H] (Octanoyl-Met-Phe-aldehyde) |  |
|  |  | > 20 | > 5 | > 2.78 | < 2.0 | < 2.0 | > 5 | < 2.0 | > 5 | < 2.0 | N[C@@H](Cc1ccccc1)C(=O)N[C@H](C=O)Cc1ccccc1 [Phe-Phe-H] (H-Phe-Phe-aldehyde) | < 2.0 |
